The text below walks through data of patent US20150368195A1, “INDOLINE COMPOUNDS FOR TREATMENT AND/OR PREVENTION OF INFLAMMATION DISEASES” (Taipei Medical University, priority 2014, published 2015).

For one data set, the system named is NFATc1. In words: RANKL-induced NFATc1 luciferase reporter in RAW264.7 cells. In kind it is cell-based, Mouse. Conditions: 5 nM MPT0G009; RANKL 24 h. The procedure:
Cells were then tartrate resistant acid phosphatase (TRAP) stained, and the numbers of TRAP-positive multinuclear cells were counted. […] Images are at ×100 magnification, and the arrows indicate differentiated osteoclasts. (FIG. 6C) RAW264.7 cells were treated as in (FIG. 6B), then incubated with a fluorescein isothiocyanate (FITC)-conjugated anti-CD51/61 antibody and analyzed by flow cytometry. (FIGS. 6D and 6E) RAW264.7 cells (1×10^5) were transfected with 1 μg of pGL4.32[luc2P/NF-κB-RE/Hygro] (FIG. 6D) or pGL4.30[luc2P/NFAT-RE/Hygro] (FIG. 6E) for 24 h and then incubated for 30 min with or without MPT0G009 (5 nM). Then RANKL (50 ng/mL) was added and incubation was continued for an additional 24 h, after which luciferase activity was determined. Results in (FIGS. 6A, 6D, and 6E) are the means±SEM's for three independent experiments. **p<0.01 compared with the indicated controls.
We also assessed the effect of MTPOG009 on the DNA-binding activity of NF-kB and NFATc1, two pivotal transcriptional factors involved in RANKL-induced pathways for promoting osteoclast differentiation. When RAW264.7 cells that had been transiently transfected with reporter plasmids were treated with 5 nM MPT0G009 for 30 min before and during 24-h stimulation with RANKL, MPT0G009 inhibited RANKL-induced NF-kB (FIG. 6d) and NFATc1 (FIG. 6e) luciferase activity.
Background: In a reporter assay the amount or activity of a reporter protein is the signal.

Another data set concerns HDAC1 and HDAC6. In words: overexpression of HDAC1 and HDAC6 in RAW264.7 macrophages or RA-FLS.
A further data set concerns cyclooxygenase-2 (COX-2). Put plainly: LPS-induced COX-2 protein expression, Western blot, RAW264.7. In kind it is cell-based, Mouse. Conditions: RAW264.7, 0.1-10 μM, LPS 25 ng/mL 24 h. The protocol:
Then the cells were harvested and whole cell extracts were prepared for Western blot analysis for iNOS and COX-2. The relative protein expressions are presented as mean±SEM for four replicates. *p<0.05 compared to the LPS-treated group.
(A western blot detects proteins with antibodies after separation by electrophoresis.)

The test system of the next data set is CTGF. In words: pro-fibrogenic mediator-induced CTGF production, Western blot. It counts as cell-based, human. Conditions: WI-38 lung fibroblasts. The protocol: (§1) Western blot analysis was performed. First, WI-38 lung fibroblasts were incubated with different concentrations of MPT0E028 (0.01, 0.03, 0.1, 0.3, or 1 μM) (FIG. 10A) or MPT0G009 (0.01, 0.03, 0.1, 0.3, or 1 μM) (FIG. 10B) for 30 min before and during incubation for 2 h with TGF-β (10 ng/mL). WI-38 lung fibroblasts were incubated with 1 μM MPT0E028 and MPT0G009 for 30 min and following another incubation for 2 h with 1 U/ml thrombin (FIG. 10C) and 10 nM ET-1 (FIG. 10D). The collagen I production from WI-38 lung fibroblasts stimulated by 10 ng/mL TGF-β for 24 h was inhibited with 1 μM MPT0E028 and MPT0G009 pretreatment (FIG. 10E).
WI-38 cells, a normal human embryonic lung fibroblast cell line, were obtained from American Type Culture Collection (Manassas, Va.). Cells were grown in MEM nutrient mixture, containing 10% FCS, 2 mM L-glutamine, 0.1 mM NEAA, 1 mM sodium pyruvate, 50 U/ml penicillin G, and 100 μg/ml streptomycin, in a humidified 37° C. incubator with 5% CO2 Cells were used between passages 18 and 30 for all experiments. After reaching confluence, cells were seeded onto 6-cm dishes for immunoblotting.
Western blot analyses were performed as described previously (Chen B C, Chang Y S, Kang J C, Hsu M J, Sheu J R, Chen T L, et al. Peptidoglycan induces nuclear factor-kappaB activation and cyclooxygenase-2 expression via Ras, Raf-1, and ERK in RAW 264.7 macrophages. J Biol Chem 2004; 279:20889-97). Briefly, WI-38 lung fibroblasts were cultured in 6-cm dishes. After reaching confluence, cells were pretreated with specific inhibitors (E028 and G009) as indicated for 30 min, and then treated with the vehicle (H2O) or 10 ng/ml TGF-β for 2 h (CTGF assay) or 24 h (collagen I assay). Whole-cell lysates ([…]) were subjected to 12% (CTGF) or 8% (collagen I) SDS-PAGE, and transferred onto a polyvinylidene difluoride membrane which was then incubated in TBST buffer (150 mM NaCl, 20 mM Tris-HCl, and 0.02% Tween 20; pH 7.4) containing 5% BSA. Proteins were visualized by specific primary antibodies and then incubated with HRP-conjugated secondary antibodies. The immunoreactivity was detected using enhanced chemiluminescence (ECL) following the manufacturer's instructions. Quantitative data were obtained using a computing densitometer with scientific imaging systems (Kodak, Rochester, N.Y.).
To determine whether the inhibitory effects of MPT0E028 and MPT0G009 on pro-fibrogenic mediators (TGF-β, thrombin, and ET-1) were related to the modulation of CTGF and Collagen I production, Western blot analysis was performed. First, WI-38 lung fibroblasts were incubated with different concentrations of MPT0E028 (0.01, 0.03, 0.1, 0.3, or 1 μM) (FIG. 10A) or MPT0G009 (0.01, 0.03, 0.1, 0.3, or 1 μM) (FIG. 10B) for 30 min before and during incubation for 2 h with TGF-β (10 ng/mL). […] Furthermore, we examined the effects of MPT0E028 and MPT0G009 on other pro-fibrogenic mediators. As shown in FIGS. 10C and 10D, WI-38 lung fibroblasts were incubated with 1 μM MPT0E028 and MPT0G009 for 30 min and following another incubation for 2 h with 1 U/ml thrombin (FIG. 10C) and 10 nM ET-1 (FIG. 10D).

In another data set the test system is interleukin-6 (IL-6). In words: LPS-induced IL-6 production in RAW 264.7 macrophages. The note with it: Mus musculus, RAW264.7, read-out: IC50 IL-6.
A further data set has as its system collagen I. Put plainly: TGF-β-induced collagen I production, Western blot. It counts as cell-based, human. The note with it: WI-38 lung fibroblasts; 1 μM pretreatment; TGF-β 10 ng/mL 24 h. The protocol: as §1
WI-38 cells, a normal human embryonic lung fibroblast cell line, were obtained from American Type Culture Collection (Manassas, Va.). […]
Western blot analyses were performed as described previously (Chen B C, Chang Y S, Kang J C, Hsu M J, Sheu J R, Chen T L, et al. Peptidoglycan induces nuclear factor-kappaB activation and cyclooxygenase-2 expression via Ras, Raf-1, and ERK in RAW 264.7 macrophages. J Biol Chem 2004; 279:20889-97). […] The immunoreactivity was detected using enhanced chemiluminescence (ECL) following the manufacturer's instructions. Quantitative data were obtained using a computing densitometer with scientific imaging systems (Kodak, Rochester, N.Y.). […]

The nature of data set [1]: maximum tolerated dose (MTD). In kind it is in vivo. Conditions: for Lethality / Change of body weight Day 7 / Change of body weight Day 14 / Change of body weight Day 21: qd × 7; for Change of body weight Day 7 / Change of body weight Day 14 / Change of body weight Day 21: mean ± SEM.

Method for HDAC1 and HDAC6: (TRAP) stained, and the numbers of TRAP-positive multinuclear cells were counted (FIG. 7D) or were incubated with a fluorescein isothiocyanate (FITC)-conjugated anti-CD51/61 antibody and analyzed by flow cytometry (FIG. 7E).

A word on the IC50: it is the concentration at which inhibition is half-maximal. Turning to `COc1ccc(S(=O)(=O)N2CCc3cc(C=CC(=O)NO)ccc32)cc1` [Compound 9, 3-[1-(4-methoxybenzenesulfonyl)-2,3-dihydro-1H-indol-5-yl]-N-Hydroxyacrylamide], in the data set on NFATc1, the “RANKL-induced NFATc1 luciferase activity” value is recorded as “inhibited”. The “effect of HDAC overexpression on inhibition of M-CSF/RANKL-induced osteoclast differentiation and CD51/61 expression” value with HDAC1 and HDAC6 (5 nM MPT0G009, transfected RAW264.7) is “significantly reduced”. For the same compound, in the data set on HDAC1 and HDAC6 (10 μM MPT0G009 or 30 μM SAHA, HDAC1- and HDAC6-coexpressing RAW264.7 or RA-FLS), the “effect of HDAC overexpression on inhibition of LPS-mediated NO or PGE2 release” value is on record as “significantly reduced the inhibitory effects”. For the same compound, the COX-2 protein expression result is “concentration-dependently inhibitory effects” with cyclooxygenase-2 (COX-2) and “significantly inhibited” with cyclooxygenase-2 (COX-2) (listed as compound 9). For the same compound, the “ET-1-induced CTGF expression” value in the data set with CTGF (1 μM, 10 nM ET-1 2 h) is “inhibited”. In addition, the “thrombin-induced CTGF expression” value with CTGF (1 μM, 1 U/ml thrombin 2 h) is reported as “inhibited”. In addition, the “TGF-β-induced CTGF production” value in the data set with CTGF (0.01-1 μM, TGF-β 10 ng/mL 2 h) is on record as “significantly inhibited”. Besides, the IC50 in the data set on interleukin-6 (IL-6) is 10 nM. Also, the “collagen I production” value in the data set on collagen I is recorded as “inhibited”. For the same compound, the Lethality in data set [1] (250 mg/kg po), in data set [1] (500 mg/kg po) and in data set [1] (1000 mg/kg po) was 0% each time. In addition, the “Change of body weight Day 7” value in data set [1] (250 mg/kg po) is given as “+8.7 ± 0.5%”; in data set [1] (500 mg/kg po) it was “+1.6 ± 0.3%”; in data set [1] (1000 mg/kg po), “+4.4 ± 0.6%”. Also, the results for the “Change of body weight Day 14” value in data set [1] (250 mg/kg po), in data set [1] (500 mg/kg po) and in data set [1] (1000 mg/kg po) were “+17.0 ± 0.4%”, “+16.5 ± 0.6%” and “+12.0 ± 0.7%”, respectively. Besides, the entries for the “Change of body weight Day 21” value in data set [1] (250 mg/kg po), in data set [1] (500 mg/kg po) and in data set [1] (1000 mg/kg po) were “+22.6 ± 0.6%”, “+24.0 ± 0.9%” and “+15.3 ± 0.8%”, respectively. In data set [1] (mice, dosage of up to 1000 mg/kg/day, within three weeks), the adverse effects result is listed as “No significant adverse effects”.
